Several values for one entry are separate records, joined by “and”; a condition that tells them apart may be missing. Equal entries are not always repeated.
Molecular target: T1, MyD88^TIR (Homo sapiens, UniProt Q99836)
T1 construct: MyD88 (residues 148–296); 6xHis; made in house; host or cells: E. coli BL21 (DE3)
Test: T‐Surf phage library (P8 and P3) selection against MyD88^TIR, four rounds, NGS read counts
Assay type: binding
Conditions: for Population: 4th round of selection against MyD88 TIR, share of NGS reads; for P3_MyD88 Rank (after) / P3_MyD88 Rank (before): P3 library; for P8_MyD88 Rank (after) / P8_MyD88 Rank (before): P8 library
Protocol: T‐Surf libraries were screened against the immobilized TIR domains of two major human TLR adaptor proteins, MAL^TIR and MyD88^TIR, allowing cross‐species selection of TIR‐binding motifs with 190 946 TIR‐derived peptides in a single binding assay (Scheme 1). Enriched phage pools from the fourth round of selection were analyzed using NGS after barcoding the peptide‐coding regions of the phage pools.
Phage display screening was performed by coating two wells of a 96‐well plate (Maxisorp, Thermo Fisher Scientific) with 100 µL of 5 µg mL^−1 TIR domains overnight; then, the coated wells were blocked with 200 µL of blocking buffer (0.2% BSA in PBS) and set aside for 1 h at 4 °C with gentle shaking. Next, 100 µL of the phage library was added to the wells and incubated for 1 h at room temperature (RT; 20 – 22 °C) with gentle shaking. The plate was washed four times with PBS containing 0.5% Tween‐20; the bound phages were eluted by adding 100 µL of 100 mM HCl to each well. The elute was neutralized with 10 µL of 1.0 M Tris‐HCl (pH 11.0). E. coli TG1 cells were grown to the log phase (A600 = ≈0.6), and 1 mL of the culture was incubated with 100 µL of the eluted phages for 30 min at 37 °C, with shaking at 200 rpm. Next, 1 µL of M13KO7 helper phages was added, followed by incubation for 45 min at 37 °C, with shaking. Subsequently, the cells were transferred to 25 mL of 2× yeast extract tryptone/carbenicillin/kanamycin medium and incubated overnight at 37 °C with shaking at 200 rpm. The amplified phages were precipitated with 20% PEG‐8000/2.5 M NaCl to be used for the next round of selection.
The naïve T‐Surf libraries in P8 and P3 and the enriched phage pools after four rounds were barcoded for NGS as previously described.^[ [59] ^] Briefly, 5 µL of the phage pool was used as a template for 20 cycles of a 50 µL PCR reaction using […] each of forward and reverse barcoded primers and PrimeSTAR Max DNA Polymerase. The PCR products were purified using Expin Gel SV (GeneAll). The NGS samples were quantified using qPCR, following the qPCR Quantification Protocol Guide (KAPA Library Quantification kits for Illumina Sequencing Platform), and qualified using the TapeStation High Sensitivity D1000 ScreenTape (Agilent Technologies). The indexed libraries were further sequenced by Macrogen (Seoul, Republic of Korea) using the NovaSeq platform (Illumina) with 100 bp paired‐end reads. The reads were demultiplexed by barcodes and filtered for an average Phred quality score of at least 30, followed by trimming the flanking consensus sequences using Cutadapt (version 2.3). Peptide sequence populations were analyzed according to the read counts.

[1] = P8_MyD88 pool: P8 T-Surf phage library
[2] = P3_MyD88: rank by count after grouping
[3] = P3_MyD88: rank by count before grouping
[4] = selection against MyD88, rank by count after grouping
[5] = selection against MyD88, rank by count before grouping
[6] = 4R selection against MyD88, rank after grouping
[7] = 4R selection against MyD88, rank before grouping
[8] = P8_MyD88: rank by count after grouping
[9] = P8_MyD88: rank by count before grouping
[10] = P8_MyD88: rank by NGS read count after grouping
[11] = P8_MyD88: rank by NGS read count before grouping
[12] = selection against MyD88, rank after grouping
[13] = selection against MyD88, rank before grouping

T1 sequence (Q99836 148-296): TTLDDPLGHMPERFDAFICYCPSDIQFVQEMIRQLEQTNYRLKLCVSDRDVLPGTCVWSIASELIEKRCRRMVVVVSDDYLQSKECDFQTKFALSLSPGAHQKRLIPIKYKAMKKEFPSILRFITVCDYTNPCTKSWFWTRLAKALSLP

YASYDDNDYYWVTHVLLRHM
Population [1]: 0.00732%

LKVDSWRQALEKAGNL
Rank (after) [2]: 117
Rank (before) [3]: 2469

KNLIMEQLSKELHTVM
P3_MyD88 Rank (after) [4]: 724
P3_MyD88 Rank (before) [5]: 3792

DPQDLQCSSERLVSLI
P8_MyD88 Rank (after) [4]: 691
P8_MyD88 Rank (before) [5]: 2906

DHHMDLTRGKAIKPEILG
P3_MyD88 Rank (after) [6]: 616
P3_MyD88 Rank (before) [7]: 2061

FGDHRMWWEDLVGIVD
P8_MyD88 Rank (after) [4]: 695
P8_MyD88 Rank (before) [5]: 1302

SSLREGLWRLQELSKK
Rank (after) [2]: 135
Rank (before) [3]: 3273

DPQDLEWFYERLVILF
Rank (after) [8]: 446
Rank (before) [9]: 2849

YPQELDWCYERLVSLL
P8_MyD88 Rank (after) [4]: 762
P8_MyD88 Rank (before) [5]: 2102

DLLRHLIEAFSRMHIN
Rank (after) [10]: 940
Rank (before) [11]: 2389

GEVPRYIFTGHLHATQ
P3_MyD88 Rank (after) [6]: 633
P3_MyD88 Rank (before) [7]: 1826

YASSSWALDELLQILHARELF
Rank (after) [8]: 175
Rank (before) [9]: 207

NELVHVWRSKANRLVG
P3_MyD88 Rank (after) [6]: 646
P3_MyD88 Rank (before) [7]: 3408

DPQDLDWFYERLISRILQ
P8_MyD88 Rank (after) [12]: 549
P8_MyD88 Rank (before) [13]: 2787

HPWRNTLTAAANLNGR
P3_MyD88 Rank (after) [12]: 546
P3_MyD88 Rank (before) [13]: 2804

NQWRNALTAAAHLTGW
P3_MyD88 Rank (after) [4]: 721
P3_MyD88 Rank (before) [5]: 3494

YLLLNVFQIIFARGPE
P8_MyD88 Rank (after) [12]: 546
P8_MyD88 Rank (before) [13]: 2018

DWVLGYRLPNLEGPAG
P8_MyD88 Rank (after) [4]: 741
P8_MyD88 Rank (before) [5]: 2395

AVDKKTDKIQTPRKNA
Rank (after) [2]: 468
Rank (before) [3]: 1938

WALNELVEIYQAYKEL
P8_MyD88 Rank (after) (selection against MyD88 TIR, rank by count after grouping): 273
P8_MyD88 Rank (before) (selection against MyD88 TIR, rank by count before grouping): 521

DSVFWDLLRYSLHVTE
Rank (after) [8]: 466
Rank (before) [9]: 3127

QYSGTPLAHTSKFPDE
P3_MyD88 Rank (after) [6]: 605
P3_MyD88 Rank (before) [7]: 2832

DPQVLERKYERLVKLV
P8_MyD88 Rank (after) [4]: 718
P8_MyD88 Rank (before) [5]: 2650

LGYHWEYWVYFVGIED
Rank (after) [10]: 1000
Rank (before) [11]: 3237

SIWWILNELQEILNYQ
P8_MyD88 Rank (after) [12]: 542
P8_MyD88 Rank (before) [13]: 3800

VASHWALEELRMIMDF
Rank (after) [8]: 160
Rank (before) [9]: 177
Population [1]: 0.00771%

YLRADDIWVWEKLLYA
P8_MyD88 Rank (after) [6]: 646
P8_MyD88 Rank (before) [7]: 2040

WALYELLHILHARELF
P8_MyD88 Rank (after) [12]: 532
P8_MyD88 Rank (before) [13]: 1401

YSFTGQLHLYLIHRGV
Rank (after) [2]: 462
Rank (before) [3]: 1433

NQWRNALTAAANLSGW
Population (P3_MyD88 pool: P3 T-Surf phage library): 0.00437% and 0.00378% and 0.0032%
P8_MyD88 Rank (after) [4]: 734
P8_MyD88 Rank (before) [5]: 3881

LVAHRMSKKMKNVATI
P3_MyD88 Rank (after) [12]: 513
P3_MyD88 Rank (before) [13]: 2316

VRHTFAGYLYDALNRL
Rank (after) [8]: 141
Rank (before) [9]: 155
Population [1]: 0.01%

NYASSSWALDELLRILY
Rank (after) [8]: 155
Rank (before) [9]: 238

GLSWVRMNGGWACMM
Rank (after) [10]: 922
Rank (before) [11]: 2287

HLLREFDKKLITAFQD
P3_MyD88 Rank (after) [6]: 594
P3_MyD88 Rank (before) [7]: 2769

LGYRLMFWDYFVGIVD
P8_MyD88 Rank (after) [12]: 548
P8_MyD88 Rank (before) [13]: 3225

DHHLDLPRGKAIKPAILR
Rank (after) [2]: 162
Rank (before) [3]: 2019

GEDTRLPLPAICMRP
P3_MyD88 Rank (after) [4]: 740
P3_MyD88 Rank (before) [5]: 1831

PQDLVWFFEGLVSLIL
Rank (after) [10]: 952
Rank (before) [11]: 3420

DPQDLDWFYERLASLL
Rank (after) [8]: 135
Rank (before) [9]: 720

Source: publication PMC11714206, “Massively Parallel Screening of Toll/Interleukin‐1 Receptor (TIR)‐Derived Peptides Reveals Multiple Toll‐Like Receptors (TLRs)‐Targeting Immunomodulatory Peptides” (Advanced Science, 2024)
